Measurements published in paper PMC9962735, “Synthesis and Cytotoxic Activity of the Derivatives of N-(Purin-6-yl)aminopolymethylene Carboxylic Acids and Related Compounds” (Molecules, 2023).

Experiments:
[1] = MTT cytotoxicity assay, HepG2; assay type: cell-based, human; conditions: human; CC50 of WI-38 divided by CC50 of HepG2; read-out: SCI (selective cytotoxicity index)
From the text: (§1) The cytotoxicity of the test compounds was studied using the MTT assay against a number of cell lines: CT-26 murine colon carcinoma, 4T1 murine mammary carcinoma, MDA-MB-231 human breast adenocarcinoma, COLO201 human colorectal adenocarcinoma, HepG2 human hepatocellular carcinoma, A549 human non-small-cell lung carcinoma, SK-BR-3 human breast adenocarcinoma, SNU-1 human gastric carcinoma, Jurkat human acute T-lymphoblastic leukemia, and WI-38 human lung fibroblasts (normal cells). Doxorubicin (Dox) was used as a reference drug. Cells were incubated with test compounds for 72 h.
(§2) Cells were seeded in flat-bottomed 96-well plates at 10,000 cells per well (for A549, SNU-1, WI-38, CT-26, MDA-MB-231, 4T1, and HepG2 cells) or 20,000 cells per well (for SK-BR-3, Jurkat, and COLO201 cells) and cultivated in complete culture mediums (for composition of each medium, see the Supplementary Materials, Table S1) in a CO2 incubator at 37 °C. At the first stage of this study, the test compounds dissolved in DMSO were added to the wells with cells at final concentrations from 1 × 10^–4 to 1 × 10^–10 mol/L (A549, SK-BR-3, SNU-1, Jurkat, and WI-38) or 1 × 10^–3 to 1 × 10^–8 mol/L (CT-26, MDA-MB-231, 4T1, COLO201, and HepG2); DMSO concentration in the wells was finally 1%. A complete cultural medium and DMSO were added to the control wells at the same concentration as in the experimental wells; 0.1% Triton X-100 solution (10 µL) was added to the corresponding wells as a non-specific positive control. After adding the test compounds, the cells were incubated for 72 h in an atmosphere containing 5% CO2. After that, the nutrient medium was removed from each well (in the case of SK-BR-3, Jurkat, and COLO201, plates were pre-centrifuged at 1500 rpm for 6 min). A solution of the commercial anticancer agent Doxorubicin (Dox, Sigma-Aldrich, St. Louis, MO, USA) in DMSO was used as a reference drug. Then, 150 µL of a complete medium with the MTT reagent (PanEco, Moscow, Russia) at a concentration of 0.5 mg/mL was added and incubated for 2 h. Formazan crystals were dissolved in DMSO (200 µL) and the absorbance in the wells was measured at 540 nm and a reference wavelength of 650 nm (Sunrise, Tecan, Groding, Austria). Experiments were performed in three parallel runs. Cell viability after incubation in the presence of test compounds was calculated in relation to cell viability in the control wells according to the Formula (1):Cell viability (%) = (Aexp/Ac) × 100,(1) where Aexp is the optical density of solutions in the wells containing test compounds; Ac is the optical density of solutions in control wells without test compounds. For detailed information on cell viability of various cell lines, see the Supplementary Materials, Figures S21–S26.
(§3) At the second stage of this study, in order to more accurately calculate the CC50 (the half maximal inhibitory concentration), the cytotoxic effect of test compounds was evaluated at concentrations close to CC50 found at the first stage. The study of the cytotoxic activity of each substance towards the cells of each line was carried out in triplicate; the mean value was used to calculate CC50. The CC50 values were determined by non-linear regression analysis using Graph-Pad Prism7.

[2] = test system: HepG2 human hepatocellular carcinoma; experiment: MTT cytotoxicity assay, HepG2; assay type: cell-based; conditions: Homo sapiens; for CC50: HepG2, 72 h incubation, MTT, n = 3
From the text: as §1, §2, §3

[3] = MTT cytotoxicity assay, Jurkat; assay type: cell-based, human; conditions: human, read-out: SCI (selective cytotoxicity index)
From the text: as §1, §2, §3

[4] = test system: Jurkat human acute T-lymphoblastic leukemia; experiment: MTT cytotoxicity assay, Jurkat; assay type: cell-based; conditions: Homo sapiens, Jurkat; for CC50: 72 h, 72 h incubation, MTT
From the text: as §1, §2, §3

[5] = MTT cytotoxicity assay, COLO201; assay type: cell-based, human; conditions: human; CC50 of WI-38 divided by CC50 of COLO201; read-out: SCI (selective cytotoxicity index)
From the text: as §1, §2, §3

[6] = test system: COLO201 human colorectal adenocarcinoma; experiment: MTT cytotoxicity assay, COLO201; assay type: cell-based; conditions: Homo sapiens, COLO 201; for CC50: COLO201, 72 h incubation, MTT, n = 3
From the text: as §1, §2, §3

[7] = MTT cytotoxicity assay, SNU-1; assay type: cell-based, human; conditions: human, read-out: SCI (selective cytotoxicity index)
From the text: as §1, §2, §3

[8] = test system: SNU-1 human gastric carcinoma; experiment: MTT cytotoxicity assay, SNU-1; assay type: cell-based; conditions: Homo sapiens; for CC50: SNU1, 72 h, SNU-1, 72 h incubation, MTT
From the text: as §1, §2, §3

[9] = MTT cytotoxicity assay, MDA-MB-231; assay type: cell-based, human; conditions: human; CC50 of WI-38 divided by CC50 of MDA-MB-231; read-out: SCI (selective cytotoxicity index)
From the text: as §1, §2, §3

[10] = test system: MDA-MB-231 human breast adenocarcinoma; experiment: MTT cytotoxicity assay, MDA-MB-231; assay type: cell-based; conditions: Homo sapiens; for CC50: MDA-MB-231, 72 h incubation, MTT, n = 3
From the text: as §1, §2, §3

[11] = MTT cytotoxicity assay, A549; assay type: cell-based, human; conditions: human, read-out: SCI (selective cytotoxicity index)
From the text: as §1, §2, §3

[12] = test system: A549 human non-small-cell lung carcinoma; experiment: MTT cytotoxicity assay, A549; assay type: cell-based; conditions: Homo sapiens; for CC50: A549, 72 h, A549, 72 h incubation, MTT
From the text: as §1, §2, §3

[13] = MTT cytotoxicity assay, SK-BR-3; assay type: cell-based, human; conditions: human, read-out: SCI (selective cytotoxicity index)
From the text: as §1, §2, §3

[14] = test system: SK-BR-3 human breast adenocarcinoma; experiment: MTT cytotoxicity assay, SK-BR-3; assay type: cell-based; conditions: Homo sapiens; for CC50: SK-BR-3, 72 h, SK-BR-3, 72 h incubation, MTT
From the text: as §1, §2, §3

[15] = MTT cytotoxicity assay, WI-38 normal cells; assay type: cell-based; conditions: human, WI-38 lung fibroblasts (normal cells); for CC50 at 72 h: WI-38, 72 h incubation, MTT
From the text: as §1, §2, §3

[16] = MTT cytotoxicity assay, CT-26; assay type: cell-based, murine; conditions: mouse (CT-26) and human (WI-38); CC50 of WI-38 divided by CC50 of CT-26; read-out: SCI (selective cytotoxicity index)
From the text: as §1, §2, §3

[17] = test system: CT-26 murine colon carcinoma; experiment: MTT cytotoxicity assay, CT-26; assay type: cell-based; conditions: Mus musculus, CT26; for CC50: CT-26, 72 h incubation, MTT, n = 3
From the text: as §1, §2, §3

[18] = MTT cytotoxicity assay, 4T1; assay type: cell-based, murine; conditions: mouse (4T1) and human (WI-38); CC50 of WI-38 divided by CC50 of 4T1; read-out: SCI (selective cytotoxicity index)
From the text: as §1, §2, §3

[19] = test system: 4T1 murine mammary carcinoma; experiment: MTT cytotoxicity assay, 4T1; assay type: cell-based; conditions: Mus musculus; for CC50: 4T1, 72 h incubation, MTT, n = 3
From the text: as §1, §2, §3

[20] = test system: A549, SK-BR-3, SNU-1, Jurkat, WI-38 cell lines; experiment: MTT cytotoxicity assay, cell line panel (result in words); assay type: cell-based, human; conditions: 72 h
From the text: as §1
The cytotoxicity of compounds 2a–c, 6, 7, and 9 was also studied using the MTT assay against a number of tumor cell lines: A549, SK-BR-3, SNU-1, Jurkat, as well as normal fibroblasts WI-38 (Table 3).
as §2, §3

[21] = test system: herpes simplex virus type 1 (HSV-1), including acyclovir-resistant HSV-1 strain; design: method as in doi:10.1002/ejoc.201900727, doi:10.1515/pac-2019-1214, doi:10.1007/s10593-021-02929-z; conditions: HSV-1 including acyclovir-resistant strain; cited from earlier work
[22] = Solubility in aqueous media; assay type: physicochemical; conditions: result in words
[23] = CC50 of WI-38 divided by CC50 of Jurkat (Table 1)
[24] = CC50 of WI-38 divided by CC50 of SNU-1 (Table 1)
[25] = CC50 of WI-38 divided by CC50 of A549 (Table 1)
[26] = CC50 of WI-38 divided by CC50 of SK-BR-3 (Table 1)
[27] = CC50 of WI-38 divided by CC50 of Jurkat (Table 3)
[28] = CC50 of WI-38 divided by CC50 of SNU-1 (Table 3)
[29] = CC50 of WI-38 divided by CC50 of A549 (Table 3)
[30] = CC50 of WI-38 divided by CC50 of SK-BR-3 (Table 3)

| SMILES | selectivity ratio at 72 h [1] | CC50 [2] | selectivity ratio at 72 h [3, 23] | CC50 ([4]; n = 3 (Table 1)) | selectivity ratio at 72 h [5] | CC50 [6] | selectivity ratio at 72 h [7, 24] | CC50 ([8]; n = 3 (Table 1)) | selectivity ratio at 72 h [9] | CC50 [10] | selectivity ratio at 72 h [11, 25] | CC50 ([12]; n = 3 (Table 1)) | selectivity ratio at 72 h [13, 26] | CC50 ([14]; n = 3 (Table 1)) | CC50 at 72 h ([15]; n = 3) | selectivity ratio at 72 h [16] | CC50 [17] | selectivity ratio at 72 h [18] | CC50 [19] | selectivity ratio at 72 h [3, 27] | also measured |
| --- | --- | --- | --- | --- | --- | --- | --- | --- | --- | --- | --- | --- | --- | --- | --- | --- | --- | --- | --- | --- | --- |
| CC1COc2c(ccc(F)c2F)N1C(=O)CCCCCCCCCCCNc1ncnc2[nH]cnc12 (stereo not shown) [Compound 1e] | 14 | 5.2 µM | 18 | 4 µM | 20 | 3.5 µM | 12 | 6 µM | 5.9 | 12 µM | 0.95 | 75 µM | 0.83 | 85 µM | 71 µM | 21 | 3.4 µM | 145 | 0.49 µM |  | viability at 100 µM ([2]; HepG2, 1 × 10^–4 M, mean ± SD (n = 3), read-out: Cell viability): 2 ± 1%; viability at 100 µM ([4]; 1 × 10^–4 M, mean ± SD (n = 3), read-out: Cell viability): 10 ± 4%; viability at 100 µM ([6]; COLO201, 1 × 10^–4 M, mean ± SD (n = 3), read-out: Cell viability): 2 ± 1%; viability at 100 µM ([8]; SNU1, SNU-1, 1 × 10^–4 M, mean ± SD (n = 3), read-out: Cell viability): 5 ± 1%; viability at 100 µM ([10]; MDA-MB-231, 1 × 10^–4 M, mean ± SD (n = 3), read-out: Cell viability): 7 ± 5%; viability at 100 µM ([12]; A549, 1 × 10^–4 M, mean ± SD (n = 3)): 6%; viability at 100 µM ([14]; SK-BR-3, 1 × 10^–4 M, mean ± SD (n = 3), read-out: Cell viability): 9 ± 2%; viability at 72 h ([15]; WI-38, 1 × 10^–4 M, mean ± SD (n = 3), read-out: Cell viability): 22 ± 7%; viability at 100 µM ([17]; CT-26, 1 × 10^–4 M, mean ± SD (n = 3), read-out: Cell viability): 3 ± 2%; viability at 100 µM ([19]; 4T1, 1 × 10^–4 M, mean ± SD (n = 3), read-out: Cell viability): 2 ± 2% |
| CC1COc2c(ccc(F)c2F)N1C(=O)CCCCCNc1ncnc2[nH]cnc12 (stereo not shown) [Compound 1b] |  |  |  |  |  |  |  |  |  |  |  |  |  |  |  |  |  |  |  | 1.5 | CC50 ([4]; n = 3 (Table 3)): 67 µM; selectivity ratio at 72 h [7, 28]: 4.9; CC50 ([8]; n = 3 (Table 3)): 20 µM; selectivity ratio at 72 h [11, 29]: 1.8; CC50 ([12]; n = 3 (Table 3)): 53 µM; selectivity ratio at 72 h [13, 30]: ≤ 0.98; CC50 ([14]; n = 3 (Table 3)): > 100 µM; CC50 at 72 h ([15]; n = 3 (Table 3)): 98 µM; cytotoxic activity (in words) [20]: showed cytotoxic activity; antiviral activity in vitro against HSV-1 [21]: high antiviral activity |
| CC1COc2c(ccc(F)c2F)N1C(=O)CCCCCCCCCCCCCCNc1ncnc2[nH]cnc12 (stereo not shown) [Compound 1f] | 3.6 | 9.7 µM | 1.1 | 32 µM | 27 | 1.3 µM | 5.8 | 6 µM | 1.4 | 28 µM | 0.58 | 60 µM | 0.35 | 99 µM | 35 µM | 12 | 3 µM | 15 | 2.3 µM |  |  |
| CC1COc2c(ccc(F)c2F)N1C(=O)CCCCCCCCCCNc1ncnc2c1ncn2COCCO (stereo not shown) [Compound 7, 4-{11-[9-(2-Hydroxyethoxy)methylpurin-6-yl]aminoundecanoyl}-7,8-difluoro-3,4-dihydro-3-methyl-2H-[1,4]benzoxazine] |  |  |  |  |  |  |  |  |  |  |  |  |  |  |  |  |  |  |  | 1.9 | CC50 ([4]; n = 3 (Table 3)): 7.3 µM; selectivity ratio at 72 h [7, 28]: 3.8; CC50 ([8]; n = 3 (Table 3)): 3.7 µM; selectivity ratio at 72 h [11, 29]: 1.5; CC50 ([12]; n = 3 (Table 3)): 9.4 µM; selectivity ratio at 72 h [13, 30]: 0.33; CC50 ([14]; n = 3 (Table 3)): 42 µM; solubility in aqueous media [22]: not possible to achieve a significant increase in the solubility; CC50 at 72 h ([15]; n = 3 (Table 3)): 14 µM; cytotoxic activity (in words) [20]: approximately the same cytotoxicity as the most active compound 1d |
